Results on 52 compounds are retold here after patent US12023336B2, “Antiviral drug compounds and composition thereof” (priority 2018, dated 2024).

Where a name gives a salt, the structure may show the parent alone.

The first test has as its system HIV-1NL4.3. In words: microbe, parasite or virus in culture. The test is classed as cell-based. The conditions noted are these: 10 μM; HIV-1NL4.3 0.1 MOI; TZM-bl cells; luminescence 48 h. As to the method:
TZM-bl cells were seeded at the density of 12,000-15,000 cells/well of 96 well plate with 100 μL DMEM (with 10% FBS) in each well. 12-hours post seeding, the media was replaced with fresh DMEM containing HTV-1NL4.3 at 0.1 MOI and cells were treated with different molecules independently at 10 μM working concentration. Cells were incubated in humidified CO2 incubator for 4-hours. After incubation, the media was replaced and cells were washed twice with incomplete DMEM and 100 μL of complete DMEM was added in each wells along with the molecules of interest and incubated at 37° C. in humidified CO2 incubator. 48-hours post incubation, the media was removed and cells were washed twice with 100 μL of 1×PBS. After washing, cells were lysed using cell culture lysis reagent and Steady-Glo substrate was added at 1:1 ration in each well. Luminescence was measured using Molecular Devices M5 (Table 2). % Inhibition was calculated using following formula and plotted.
[formula] (RLU=Relative Luminescence Unit)
Turning to `NC(Cc1cc(O)c(O)cc1O)C(=O)O` (racemic) [6-Hydroxy-DL-DOPA], the “% Inhibition at 10 μM Concentration” value was found to be 96.67%.
Still for that read-out and setting: the result for `Cl.NCCCC(N)(C(=O)O)C(F)F` (racemic) [DL-alpha-Difluoromethylornithine hydrochloride] reads 97.06%.
On the same count and under the same terms, under `O=Nc1ccc2oc(=O)ccc2c1` [6-Nitroso-1,2-benzopyrone] stands 99.15%; under `N[C@@H](Cn1oc(=O)[nH]c1=O)C(=O)O` [(+)-Quisqualic acid], 99.30%; under `CC(C)NC[C@H](O)COc1cccc2ccccc12.Cl` [(S)-Propranolol hydrochloride], 99.30%.
Consider `CC(=O)OC[C@H]1O[C@@H]([S-])[C@H](OC(C)=O)[C@@H](OC(C)=O)[C@@H]1OC(C)=O.CCP(CC)CC.[Au+]` [Auranofin], for which the “% Inhibition at 10 μM Concentration” value amounted to 96.08%.
`COc1ccc(-c2cc3nccn3c(Nc3ncccc3C(N)=O)n2)cc1OC.Cl.O` [BAY 61-3606 hydrochloride hydrate]: the “% Inhibition at 10 μM Concentration” value was 95.05%.
On the same count and under the same terms, under `O=C(O)/C=C\C(=O)O.O=C1/C(=C/c2ccccc2)C[C@@]2(O)[C@H]3Cc4ccc(O)c5c4[C@@]2(CCN3CC2CC2)[C@H]1O5` [BNTX maleate salt hydrate] stands 99.26%; under `O=c1oc(Cl)c(Cl)c2ccccc12` [Dichloroisocoumarin], 97.06%; under `CNCCNS(=O)(=O)c1cccc2cnccc12.Cl.Cl` [H-8 dihydrochloride], 99.57%.
Take `Oc1ccc(/C=C/c2ccc(/C=C/c3ccc(O)cc3)c(Br)c2)cc1` [K114]: the “% Inhibition at 10 μM Concentration” value came out at 96.16%.
Regarding `CCOC(=O)c1ncn2c1[C@@H]1CCCN1C(=O)c1cc(OC)ccc1-2` [L-655,708], the “% Inhibition at 10 μM Concentration” value was determined as 97.43%.
The same measure, in the same setting: the result for `O=[N+]([O-])/C=C/c1ccc2c(c1)OCO2` [MNS] reads 99.63%.
Still for that read-out and setting: the result for `COc1ccccc1CNCCCCCCNCCCCCCCCNCCCCCCNCc1ccccc1OC` [Methoctramine tetrahydrochloride] reads 98.94%; that for `Cc1ccc(S(=O)(=O)N[C@@H](Cc2ccccc2)C(=O)CCl)cc1` [N-p-Tosyl-L-phenylalanine chloromethyl ketone], 98.76%.
Still for that read-out and setting: the result for `O=C(Nc1cccc(C(=O)Nc2ccc(S(=O)(=O)O)c3cc(S(=O)(=O)O)cc(S(=O)(=O)O)c23)c1)Nc1cccc(C(=O)Nc2ccc(S(=O)(=O)O)c3cc(S(=O)(=O)O)cc(S(=O)(=O)O)c23)c1` [NF 023] reads 95.77%.
As for `CC(C)[C@H]1c2ccc(F)cc2CC[C@@]1(CCN(C)CCCc1nc2ccccc2[nH]1)OC(=O)C1CC1` [NNC 55-0396], the “% Inhibition at 10 μM Concentration” value came to 97.75%.
Consider `Cn1c(=O)c(-c2c(Cl)cccc2Cl)cc2cnc(Nc3ccc(N4CCOCC4)cc3)nc21` [PD173952], for which the “% Inhibition at 10 μM Concentration” value turned out to be 96.16%.
As to `CS(=O)(=O)c1cccc(CNc2nc(Nc3ccc4c(c3)CCC(=O)N4)ncc2C(F)(F)F)c1` [PF-573228], the “% Inhibition at 10 μM Concentration” value was 97.23%.
On to `Nc1nc2c(ncn2CCOCP(=O)(O)O)c(=O)[nH]1` [PMEG hydrate], for which the “% Inhibition at 10 μM Concentration” value is given as 99.36%.
Take `Nc1ccc(-c2nc3ccc(-c4nc5ccc(N)cc5[nH]4)cc3[nH]2)cc1` [RO 90-7501]: the “% Inhibition at 10 μM Concentration” value was found to be 99.67%.
The same measure, in the same setting: the result for `CC1=C(/C=C/C(C)=C/C=C/C(C)=C/C(=O)Nc2ccc(O)cc2)C(C)(C)CCC1` [Retinoic acid p-hydroxyanilide] reads 98.52%; that for `CC(C)NC[C@@H](O)c1ccc(O)c(O)c1.O=C(O)C(O)C(O)C(=O)O` [S(+)-Isoproterenol (+)-bitartrate], 97.10%; that for `CCCN1CCC[C@@H](c2cccc(O)c2)C1.Cl` [S(−)-3PPP hydrochloride], 98.60%.
As for `CCc1ccccc1OC[C@@H](O)CN[C@H]1CCCc2ccccc21.O=C(O)C(=O)O` [SR 59230A oxalate], the “% Inhibition at 10 μM Concentration” value is 97.52%.

The test is the same for the next values; noted with them: Human immunodeficiency virus 1, TZM-bl, 48 h, read-out: % Inhibition at 10 μM Concentration.
On to `O=C1c2ccccc2C(=O)c2c(NCCc3ccc(O)cc3)ccc(NCCc3ccc(O)cc3)c21` [1,4-Bis[(p-hydroxyphenethyl)amino]-anthraquinone], for which the inhibition at 10 µM came to 98.9%.
As to `CNCCCC12CCC(c3ccccc31)c1ccccc12` [Maprotiline hydrochloride], the inhibition at 10 µM was 98.9%.
On to `N#CC(=C(/N)Sc1ccccc1N)/C(C#N)=C(\N)Sc1ccccc1N` [U0126], for which the inhibition at 10 µM is 97.4%.

The test is the same for the next values; noted with them: Human immunodeficiency virus 1; 10 μM; HIV-1NL4.3 0.1 MOI; TZM-bl cells; luminescence 48 h; read-out: % Inhibition at 10 μM Concentration.
Take `O=C(O)C1=CC(=C(c2ccc(O)c(C(=O)O)c2)c2ccc(O)c(C(=O)O)c2)C=CC1=O` [Aurintricarboxylic acid]: the inhibition at 10 µM was determined as 97.2%.
On the same count and under the same terms, under `CCCCN(CC)c1nc(C)nc2c1c(C)cn2-c1c(C)cc(C)cc1C` [CP-154526 hydrochloride] stands 97.1%; under `Cc1ccc(-c2cc(C(F)(F)F)nn2-c2ccc(S(N)(=O)=O)cc2)cc1` [Celecoxib], 95.1%; under `CC(=O)O[C@]1(C(C)=O)CC[C@H]2[C@@H]3C=C(Cl)C4=CC(=O)[C@@H]5C[C@@H]5[C@]4(C)[C@H]3CC[C@@]21C` [Cyproterone acetate], 98.5%.
As for `COc1cc2nc(N3CCN(C(=O)C4COc5ccccc5O4)CC3)nc(N)c2cc1OC` (stereo not shown) [Doxazosin mesylate], the inhibition at 10 µM stood at 100%.
For `CCCCc1ncc(/C=C(\Cc2cccs2)C(=O)O)n1Cc1ccc(C(=O)O)cc1` [Eprosartan mesylate], the inhibition at 10 µM is 99.8%.
Turning to `CC1=NN=C(c2ccc(N)cc2)c2cc3c(cc2C1)OCO3` [GYKI 52466 hydrochloride], the inhibition at 10 µM was found to be 99.3%.
Still for that read-out and setting: the result for `Cc1cnc(C(=O)NCCc2ccc(S(=O)(=O)NC(=O)NC3CCCCC3)cc2)cn1` [Glipizide] reads 98.5%; that for `N=C(N)N/N=C/c1c(Cl)cccc1Cl` [Guanabenz acetate], 99.6%.
Regarding `CN[C@@H]1C[C@@H](c2ccc(Cl)c(Cl)c2)c2ccccc21` [Indatraline hydrochloride], the inhibition at 10 µM turned out to be 97.4%.
The same measure, in the same setting: under `O=C1Cc2c([nH]c3ccc(Br)cc23)-c2ccccc2N1` [Kenpaullone] stands 98.7%; under `CC[N+](CC)(CC)CCOc1ccc(/C=C/c2ccccc2)cc1` [MG 624], 97.1%.
On the same count and under the same terms, under `O=C1c2c(O)ccc(O)c2C(=O)c2c(NCCNCCO)ccc(NCCNCCO)c21` [Mitoxantrone] stands 97.1%; under `COC(=O)C1=C(C)NC(C)=C(C(=O)OCCN(C)Cc2ccccc2)C1c1cccc([N+](=O)[O-])c1` (stereo not shown) [Nicardipine hydrochloride], 99.6%.
Still for that read-out and setting: under `CNCCC=C1c2ccccc2CCc2ccccc21` [Nortriptyline hydrochloride] stands 99.2%.
For `NC(=O)CN1CC(O)CC1=O` (stereo not shown) [Oxiracetam], the inhibition at 10 µM was determined as 96.5%.
Same read-out and setting: the result for `CCN(CC)CCOc1ccc(Nc2ncc3cc(-c4c(Cl)cccc4Cl)c(=O)n(C)c3n2)cc1` [PD-166285 hydrate] reads 97%; that for `OCCN1CCN(CCCN2c3ccccc3Sc3ccc(Cl)cc32)CC1` [Perphenazine], 99.6%.
On to `CCN(CC)CCCC(C)Nc1c2ccc(Cl)cc2nc2ccc(OC)cc12` (stereo not shown) [Quinacrine dihydrochloride], for which the inhibition at 10 µM is 100%.
Same read-out and setting: the result for `Oc1c2ccccc2c2c3c(cccc13)N=N2` [SP600125] reads 97.5%; that for `CC(C)(C)c1ccc(C(O)CCCN2CCC(C(O)(c3ccccc3)c3ccccc3)CC2)cc1` (stereo not shown) [Terfenadine], 98.7%.
Still for that read-out and setting: the result for `CC[C@@]1(O)C(=O)OCc2c1cc1n(c2=O)Cc2cc3c(CN(C)C)c(O)ccc3nc2-1` [Topotecan hydrochloride hydrate] reads 98.1%.
Still for that read-out and setting: the result for `CCCCNc1c(C(=O)OCC)c(C)nc2c1cnn2CC` [Tracazolate] reads 99.1%.

The next test has as its system HIV-1NL4.3.
Experiment: not given
The test is classed as cell-based. The conditions noted are these: 100 nM; CEM-GFP (FIG. 9). The method, then: Cells were then treated with molecules at different concentrations.
With `[2H]C([2H])([2H])N(Cc1cnc2nc(N)nc(N)c2n1)c1ccc(C(=O)N[C@@H](CCC(=O)O)C(=O)O)cc1` [MTX-methyl-d3], the “inhibition of replication of HIV-1NL4.3” value is “inhibits replication of HIV-1NL4.3”.
